Results from patent US12030929B2, “Fusobacterium nucleatum amyloid-like FadA for diagnosis and treatment of Fn-mediated pathogenesis” (The Trustees of Columbia University in the City of New York, priority 2021, dated 2024).

Assays:
[1] = tested on: HCT116 xenograft tumors; assay: CRC xenograft model; format: in vivo; conditions: Fn 12230 washed in 1 mg/ml Congo Red, injected into tumors; IHC one week later; nude mice
Description: FIG. 5A-5D. Amyloid-like FadA mediates colonization in CRC and promotes tumor growth in vivo. 5A. Analysis of Fn colonization in mouse xenograft tumors by IHC. An inoculum of 5×10^6 HCT116 cells was injected subcutaneously and bilaterally into the nude mice. Once the tumors became visible (after 3-4 days), approximately 5×10^6 CFU of Fn 12230 washed in PBS or 1 mg/ml Congo Red (CR) were injected into the tumors. The tumors were extracted one week later, and the formalin-fixed and embedded (FFPE) tissues were stained with mAb 7H7. Note the brown stains in tumor injected with PBS-washed tumor, but not in CR-washed tumor. 5B. Effects of secreted amyloid-like FadA on tumor growth. HCT116 cells were injected into the nude mice as described above, followed by injection of 5×10^6 CFU of Fn 12230 (Fn, n=7), lam (n=3) or US1 (ΔfadA, n=4). The tumor volumes were measured immediately before bacteria injection (Day 0, designated as 100%), and at 3 days after injection (Day 3). The horizontal lines represent averages of tumor volumes (left panel). The individual tumors are shown (right panel). **p<0.01, ***p<0.001 (t-test). 5C. […] The tumor volumes were measured on Day 0 and Day 5 as described above. […] The tumor volumes were measured described above. […]
CRC xenograft model. […] The tumor length and width were measured using calipers and tumor volumes were calculated using the following formula: Volume=(width)2×length/2. […]

[2] = tested on: Fn binding to human CRC cells DLD1; assay: Cell culture attachment assay, DLD1; format: cell-based; conditions: bacteria washed twice with 1 mg/ml Congo Red, MOI 50:1
[3] = tested on: Fn 12230; assay: Effects of Congo Red on Fn viability (OD600 and CFU); format: cell-based, Fusobacterium nucleatum; conditions: incubation 48 or 72 hrs
Description: FIG. 10A-10B. 10A. Schematic illustration of preparation of detergent-resistant bacterial pellets and its use as scaffold for biofilm growth. 10B. Effects of Congo Red on Fn viability. Fn 12230 was incubated in PBS (top row), 10 mg/ml Congo Red (10 CR), or 50 mg/ml Congo Red (50 CR) for 48 hrs (left panel) or 72 hrs (right panel), followed by measurement of OD600 (OD) and viable counts (CFU).

[4] = tested on: US1 (ΔfadA); assay: pH tolerance assay, fadA-deletion mutant; format: cell-based, Fusobacterium nucleatum; conditions: stationary phase; pH 4.0; 50 μg/ml Congo Red; 1 or 2 hours

Compound: Nc1c(/N=N/c2ccc(-c3ccc(/N=N/c4cc(S(=O)(=O)O)c5ccccc5c4N)cc3)cc2)cc(S(=O)(=O)O)c2ccccc12 [Congo Red]
- Fn colonization in xenograft tumors [1]: significantly inhibited Fn colonization in xenograft tumors
- effect on Fn binding to DLD1 ([2]; log phase): little or no effect on binding
- reduction of Fn binding to DLD1 ([2]; stationary phase): ~5 fold
- viability of Fn [3]: without affecting the viability of Fn
- viability of US1 (ΔfadA) in acidic environment [4]: without affecting US1 (ΔfadA)
